Data as given in patent publication US20240024514A1, “RECOMBINANT ADENO-ASSOCIATED VIRUSES WITH ENHANCED LIVER TROPISM AND USES THEREOF” (priority 2020, published 2024).

Columns and labels:
HBeAg = HBeAg in HBV transgenic mice; assay type: in vivo; settings: blood, ETV 3.2 mg/kg, rAAV 3 × 10^10 vg/animal
Description: (§1) scAAV2/X-H1-shRNA-intron2 and scAAV2/8-H1-shRNA-intron2 were administered to HBV transgenic mice (Beijing Vitalstar Biotechnology Co., Ltd, B6-Tg HBV/Vst; C57BL/6-HBV) via intravenous injection, respectively. Epivir® (Lamivudine) and Baraclude® (Entecavir) were used as controls. Blood was collected on days 0, 7, 14, 21, 28, 35, 56, 84, 112, 140, 168, 196, 224, and 252, centrifuged, and assayed for the level of HBsAg, HBeAg, and HBV DNA.

HBV DNA [1] = assay: HBV DNA in HBV transgenic mice; assay type: in vivo; settings: blood, LAM 150 mg/kg, ETV 3.2 mg/kg, rAAV 3 × 10^10 vg/animal
Description: as §1

HBsAg = HBsAg in HBV transgenic mice; assay type: in vivo; settings: blood, LAM 150 mg/kg, ETV 3.2 mg/kg, rAAV 3 × 10^10 vg/animal
Description: as §1

HBV HBeAg = assay: suppression of HBV HBeAg in HepG2.2.15 cells; assay type: cell-based, Hepatitis B virus; settings: 1 ug/mL
Description: (§2) scAAV2/X-H1-shRNA-intron2 and scAAV2/8-H1-shRNA-intron2 were used to infect HepG2.2.15 cells with increased Multiplicity of Infection (MOI). The levels of HBV HBeAg, HBV HBsAg, and HBV DNA in samples were measured by HBV HBeAg diagnostic kit (Beijing Wantai Biopharmaceuticals Ltd. Co.), HBV HBsAg diagnostic kit (Beijing Wantai Biopharmaceuticals Ltd. Co.), and HBV nucleotide quantification kit (QIAGEN), respectively. 1 ug/mL of Lamivudine (LAM) was used as a positive control in the experiments. scAAV2/X-H1-NC-intron2 (X-NC) and scAAV2/8-H1-NC-intron2 (8-NC) were used as negative controls. […] The sample was collected every day for nine days and analyzed for the levels of HBeAg, HbsAg, and HBV DNA.

HBV DNA [2] = assay: suppression of HBV DNA in HepG2.2.15 cells; assay type: cell-based, Hepatitis B virus; settings: 1 ug/mL
Description: as §2

HBV HBsAg = assay: suppression of HBV HBsAg in HepG2.2.15 cells; assay type: cell-based, Hepatitis B virus; settings: 1 ug/mL
Description: as §2

C=C1[C@H](CO)[C@@H](O)C[C@@H]1n1cnc2c(=O)[nH]c(N)nc21 [ETV, Entecavir]
HBeAg Levels (HBeAg; D0): 130.7 PEIU/mL | HBeAg Levels (HBeAg; D7): 138.6 PEIU/mL | HBeAg Levels (HBeAg; D14): 92.1 PEIU/mL | HBeAg Levels (HBeAg; D21): 66.5 PEIU/mL | HBeAg Levels (HBeAg; D28): 78.3 PEIU/mL | HBeAg Levels (HBeAg; D35): 48.2 PEIU/mL | HBeAg Levels (HBeAg; D56): 131.4 PEIU/mL | HBeAg Levels (HBeAg; D84): 105.1 PEIU/mL | HBeAg Levels (HBeAg; D112): 133.8 PEIU/mL | HBeAg Levels (HBeAg; D140): 178.5 PEIU/mL | HBeAg Levels (HBeAg; D168): 125.9 PEIU/mL | HBeAg Levels (HBeAg; D196): 150.5 PEIU/mL | HBeAg Levels (HBeAg; D224): 123.5 PEIU/mL | HBeAg Levels (HBeAg; D252): 155.1 PEIU/mL | HBV DNA Levels (HBV DNA [1]; D0): 1 | HBV DNA Levels (HBV DNA [1]; D7): 5.7 | HBV DNA Levels (HBV DNA [1]; D14): 8.68 | HBV DNA Levels (HBV DNA [1]; D21): 0.66 | HBV DNA Levels (HBV DNA [1]; D28): 1.24 | HBV DNA Levels (HBV DNA [1]; D35): 1.08 | HBV DNA Levels (HBV DNA [1]; D56): 1.17 | HBV DNA Levels (HBV DNA [1]; D84): 1.1 | HBV DNA Levels (HBV DNA [1]; D112): 2.24 | HBV DNA Levels (HBV DNA [1]; D140): 1.91 | HBV DNA Levels (HBV DNA [1]; D168): 1.79 | HBV DNA Levels (HBV DNA [1]; D196): 2.17 | HBV DNA Levels (HBV DNA [1]; D224): 2.48 | HBV DNA Levels (HBV DNA [1]; D252): 1.42 | HBsAg Levels (HBsAg; D0): 1 | HBsAg Levels (HBsAg; D7): 1.52 | HBsAg Levels (HBsAg; D14): 1.51 | HBsAg Levels (HBsAg; D21): 1.08 | HBsAg Levels (HBsAg; D28): 1.55 | HBsAg Levels (HBsAg; D35): 1.8 | HBsAg Levels (HBsAg; D56): 1.21 | HBsAg Levels (HBsAg; D84): 1.18 | HBsAg Levels (HBsAg; D112): 0.43 | HBsAg Levels (HBsAg; D140): 1.04 | HBsAg Levels (HBsAg; D168): 1.23 | HBsAg Levels (HBsAg; D196): 1.48 | HBsAg Levels (HBsAg; D224): 1.16 | HBsAg Levels (HBsAg; D252): 0.72

Nc1ccn([C@@H]2CS[C@H](CO)O2)c(=O)n1 [Lamivudine]
level of HBeAg (HBV HBeAg; D0): 1 | level of HBeAg (HBV HBeAg; D1): 1.323 | level of HBeAg (HBV HBeAg; D2): 0.716 | level of HBeAg (HBV HBeAg; D3): 0.9612 | level of HBeAg (HBV HBeAg; D4): 1.035 | level of HBeAg (HBV HBeAg; D5): 1.916 | level of HBeAg (HBV HBeAg; D6): 0.9979 | level of HBeAg (HBV HBeAg; D7): 1.148 | level of HBeAg (HBV HBeAg; D8): 0.9362 | level of HBeAg (HBV HBeAg; D9): 0.5632 | HBV DNA Levels (HBV DNA [1]; D0): 1 | HBV DNA Levels (HBV DNA [1]; D7): 1.3 | HBV DNA Levels (HBV DNA [1]; D14): 0.69 | HBV DNA Levels (HBV DNA [1]; D21): 0.49 | HBV DNA Levels (HBV DNA [1]; D28): 0.87 | HBV DNA Levels (HBV DNA [1]; D35): 0.72 | HBV DNA Levels (HBV DNA [1]; D56): 0.97 | HBV DNA Levels (HBV DNA [1]; D84): 0.43 | HBV DNA Levels (HBV DNA [1]; D112): 1.64 | HBV DNA Levels (HBV DNA [1]; D140): 0.92 | HBV DNA Levels (HBV DNA [1]; D168): 0.63 | HBV DNA Levels (HBV DNA [1]; D196): 0.18 | HBV DNA Levels (HBV DNA [1]; D224): 0.12 | HBV DNA Levels (HBV DNA [1]; D252): 0.23 | level of HBV DNA (HBV DNA [2]; D0): 1 | level of HBV DNA (HBV DNA [2]; D1): 0.6797 | level of HBV DNA (HBV DNA [2]; D2): 0.358 | level of HBV DNA (HBV DNA [2]; D3): 0.357 | level of HBV DNA (HBV DNA [2]; D4): 0.1907 | level of HBV DNA (HBV DNA [2]; D5): 0.05735 | level of HBV DNA (HBV DNA [2]; D6): 0.02341 | level of HBV DNA (HBV DNA [2]; D7): 0.04001 | level of HBV DNA (HBV DNA [2]; D8): 0.02104 | level of HBV DNA (HBV DNA [2]; D9): 0.006153 | level of HBsAg (HBV HBsAg; D0): 1 | level of HBsAg (HBV HBsAg; D1): 0.7085 | level of HBsAg (HBV HBsAg; D2): 1.069 | level of HBsAg (HBV HBsAg; D3): 0.8838 | level of HBsAg (HBV HBsAg; D4): 0.8549 | level of HBsAg (HBV HBsAg; D5): 0.9837 | level of HBsAg (HBV HBsAg; D6): 1.128 | level of HBsAg (HBV HBsAg; D7): 1.284 | level of HBsAg (HBV HBsAg; D8): 1.324 | level of HBsAg (HBV HBsAg; D9): 0.7175 | HBsAg Levels (HBsAg; D0): 1 | HBsAg Levels (HBsAg; D7): 1 | HBsAg Levels (HBsAg; D14): 0.98 | HBsAg Levels (HBsAg; D21): 1.01 | HBsAg Levels (HBsAg; D28): 0.96 | HBsAg Levels (HBsAg; D35): 1.23 | HBsAg Levels (HBsAg; D56): 0.84 | HBsAg Levels (HBsAg; D84): 0.88 | HBsAg Levels (HBsAg; D112): 0.5 | HBsAg Levels (HBsAg; D140): 0.98 | HBsAg Levels (HBsAg; D168): 1.1 | HBsAg Levels (HBsAg; D196): 0.82 | HBsAg Levels (HBsAg; D224): 0.76 | HBsAg Levels (HBsAg; D252): 0.46
